Measurements reported in BindingDB's records for doi:10.1021/acsmedchemlett.7b00164 (Shenyang Pharmaceutical University, 2017).

Experiment: Inhibition of PDGFR in mouse NIH/3T3 cells assessed as reduction in recombinant human PDGF-BB-induced cell proliferation after 42 hrs by cell titer 96 aqueous one solution based assay

| SMILES | IC50 |
| --- | --- |
| COC(=O)c1ccc2c(c1)NC(=O)/C2=C(\Nc1ccc(N2C(=O)CC[C@H]2CN2CCN(C)CC2)cc1)c1ccccc1 | 110 nM |
| COC(=O)c1ccc2c(c1)NC(=O)/C2=C(\Nc1ccc2c(c1)N(C(=O)CN1CCCC1=O)CC2)c1ccccc1 | 260 nM |
| COC(=O)c1ccc2c(c1)NC(=O)/C2=C(\Nc1ccc2c(c1)N(C(=O)Cn1cccn1)CC2)c1ccccc1 | 110 nM |
| COC(=O)c1ccc2c(c1)NC(=O)/C2=C(\Nc1ccc2c(c1)N(C(=O)CN1CC(C)OC(C)C1)CC2)c1ccccc1 (centres undefined) | 150 nM |

Further lines, results first:

| IC50 | SMILES |
| --- | --- |
| 100 nM | COC(=O)c1ccc2c(c1)NC(=O)/C2=C(\Nc1ccc2c(c1)N(C(=O)CN1CCOCC1)CC2)c1ccccc1 |
| 110 nM | COC(=O)c1ccc2c(c1)NC(=O)/C2=C(\Nc1ccc(N2CCC(CN3CCN(C)CC3)C2=O)cc1)c1ccccc1 (centres undefined) |
| 85 nM | COC(=O)c1ccc2c(c1)NC(=O)/C2=C(\Nc1ccc(N(C)C(=O)CN2CCN(C)CC2)cc1)c1ccccc1 [BIBF-1120] |
| 100 nM | COC(=O)c1ccc2c(c1)NC(=O)/C2=C(\Nc1ccc2c(c1)N(C(=O)Cn1cncn1)CC2)c1ccccc1 |
| 97 nM | COC(=O)c1ccc2c(c1)NC(=O)/C2=C(\Nc1ccc(N2C(=O)CC[C@@H]2CN2CCN(C)CC2)cc1)c1ccccc1 |
